Results: US9918488B2, “Method for sterilizing drinks contaminated with acetic acid bacteria” (LANXESS Deutschland GmbH, priority 2014, dated 2018)
Values after ≈ are worked out from the molar mass of the structure shown.

Assays:
[1] = tested on: mixture of Asaia bogorensis, Asaia lannaensis, Gluconobacter oxydans and Gluconacetobacter liquefaciens; experiment: microbe, parasite or virus in culture; details: 168 h, read-out: MIC ppm after one week
Text: (§1) A drink was contaminated with a particular amount of a mixture of microorganisms and a mixture of preservatives was investigated for efficacy compared to the individual substances. The mixture of bacteria is composed of Asaia bogorensis, Asaia lannaensis, Gluconobacter oxydans and Gluconacetobacter liquefaciens.
(§2) The following relationships apply: QA/Qa+QB/Qb+QC/Qc=SI • Qa=concentration of substance A which is the MIC • Qb=concentration of substance B which is the MIC • Qc=concentration of substance C which is the MIC • QA=concentration of substance A in the concentration of A/B/C at which microbial growth is suppressed • QB=concentration of substance B in the concentration of A/B/C at which microbial growth is suppressed • QC=concentration of substance C the concentration of A/B/C at which microbial growth is suppressed • SI=Synergy Index • SI=1 means additivity • SI>1 means antagonism • SI<1 means synergism

[2] = tested on: mixture of Asaia bogorensis, Asaia lannaensis, Gluconobacter oxydans and Gluconacetobacter liquefaciens; details: individual active ingredient; substrate iced tea; 200 cfu/mL per bacterium in the mixture
Text: as §1, §2

SMILES	MIC [1] [µg/mL]	MIC ppm after one week [2] [µg/mL]
COC(=O)OC(=O)OC [Dimethyl dicarbonate, dimethyl dicarbonate]	300 (≈ 2240 µM)	300 (≈ 2240 µM)
O=S([O-])OS(=O)[O-].[K+].[K+] [Potassium disulphite, potassium disulphite]	60	60
C/C=C/C=C/C(=O)[O-].[K+] [Potassium sorbate, potassium sorbate]	750	–
O=C([O-])c1ccccc1.[Na+] [Sodium benzoate, sodium benzoate]	–	550
